Active and inactive are the calls of the source. The calls are words filed in the database; no cut-off is given here.
What was measured:
[1] = target: Transmembrane protease serine 4 (Homo sapiens) (UniProt Q9NRS4); assay: Inhibition of TMPRSS4 serine protease domain (Val205 to Leu437 residues) (unknown origin) expressed in Escherichia coli BL21 (DE3) at 1 mM using Boc-Gln-Ala-Arg-7-amido-4-methylcoumarin hydrochloride substrate measured at 5 mins intervals
[2] = target: Transmembrane protease serine 4 (Homo sapiens) (UniProt Q9NRS4); assay: Inhibition of TMPRSS4 serine protease domain (Val205 to Leu437 residues) (unknown origin) expressed in Escherichia coli BL21 (DE3) at 30 uM using Z-Phe-Arg7-amido-4-methylcoumarin hydrochloride substrate measured at 5 mins interval for 150 mins by fluorescence based assay relative to control
[3] = target: Transmembrane protease serine 4 (Homo sapiens) (UniProt Q9NRS4); assay: Inhibition of TMPRSS4 serine protease domain (Val205 to Leu437 residues) (unknown origin) expressed in Escherichia coli BL21 (DE3) at 10 uM using Z-Phe-Arg7-amido-4-methylcoumarin hydrochloride substrate measured at 5 mins interval for 150 mins by fluorescence based assay relative to control
[4] = target: Transmembrane protease serine 4 (Homo sapiens) (UniProt Q9NRS4); assay: Inhibition of TMPRSS4 serine protease domain (Val205 to Leu437 residues) (unknown origin) expressed in Escherichia coli BL21 (DE3) at 100 uM using Z-Phe-Arg7-amido-4-methylcoumarin hydrochloride substrate measured at 5 mins interval for 150 mins by fluorescence based assay relative to control

Transmembrane protease serine 4 (Homo sapiens), sequence (Q9NRS4 whole entry, the tested form may be a part): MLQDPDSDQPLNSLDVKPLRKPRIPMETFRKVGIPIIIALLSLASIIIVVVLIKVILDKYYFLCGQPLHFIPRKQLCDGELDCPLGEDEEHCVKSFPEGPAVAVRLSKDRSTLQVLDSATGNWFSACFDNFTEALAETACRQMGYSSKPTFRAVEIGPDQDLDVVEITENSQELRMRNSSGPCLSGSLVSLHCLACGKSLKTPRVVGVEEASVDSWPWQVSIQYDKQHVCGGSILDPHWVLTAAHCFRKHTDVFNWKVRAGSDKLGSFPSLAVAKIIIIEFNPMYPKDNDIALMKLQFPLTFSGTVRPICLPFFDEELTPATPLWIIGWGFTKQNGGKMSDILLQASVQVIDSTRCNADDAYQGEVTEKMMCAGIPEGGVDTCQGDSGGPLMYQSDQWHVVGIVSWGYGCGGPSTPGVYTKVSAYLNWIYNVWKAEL

| SMILES | inhibition [1] | inhibition [2] [%] | inhibition [3] [%] | inhibition [4] [%] |
| --- | --- | --- | --- | --- |
| NCCc1ccc(S(=O)(=O)F)cc1 | Active |  |  |  |
| O=C(Nc1cc(C(F)(F)F)cc(C(F)(F)F)c1Cl)c1cc(-c2ccc(F)cc2F)ccc1O |  | 31 | 5 |  |
| O=C(Nc1ccc(C(F)(F)F)c(Br)c1)c1cc(Cl)ccc1O |  | 46 | 30 | 98 |
| Cc1c(NC(=O)c2cc(Cl)ccc2O)cccc1C(F)(F)F |  | 77 |  |  |

— ChEMBL document CHEMBL4418482, “2-hydroxyarylamide derivative or pharmaceutically acceptable salt thereof, preparation method thereof, and pharmaceutical composition for preventing or treating cancer containing same as active ingredient” (2014)
